Results published in patent US20250345426A1, “METHODS FOR MAKING AND USING THERAPEUTIC CELLS” (THE REGENTS OF THE UNIVERSITY OF CALIFORNIA, priority 2022, published 2025).

Key:
rituximab CAR-T cells [1] = assay: Antigen-independent activation and exhaustion marker expression by flow cytometry, rituximab CAR-T cells; format: cell-based, human; settings: for measures of antigen-independent CAR-T cell activation: FIG. 1B-D (markers, TNF-α, cell division), MYCi975 2 μM
Description: FIG. 1A-G. Pharmacological inhibition of PI3K/AKT pathway modulates antigen-independent CAR-T cell activation. (A) Table of pharmacological inhibitors used during ex vivo expansion of rituximab CAR-T cells (left). Simplified schematic of the PI3K/AKT signaling axis where black arrows represent activation (right). (B) Activation marker expression by CAR^+ T cells in the absence of antigen stimulation after 5 days of pharmacological modulation. Data bars indicate the means of technical triplicates±1 S.D. The bars in FIG. 1B represent data from, untreated, vehicle, CAL-101, AZD5363, Rapamycin, MYCi975, and Betulin, respectively, from left to right. (C) TNF-α production CAR^+ T cells in the absence of antigen stimulation as quantified by intracellular flow cytometry. Data bars indicate the means of technical triplicates±1 S.D. The bars in FIG. 1B and FIG. 1C represent data from, untreated, vehicle, CAL-101, AZD5363, Rapamycin, MYCi975, and Betulin, respectively, from left to right. (D) Proliferation of CAR^+ T cells stained with CellTrace Violet (CTV) dye was assayed after a 4-day culture in the absence of target cells or exogenous cytokines. Data shown in the histogram correspond to one of technical triplicates shown in the bar graph. The bars FIG. 1D represent data from, EGFRt, untreated, vehicle, CAL-101, AZD5363, Rapamycin, MYCi975, and Betulin, respectively, from left to right. (E) % distribution of T-cell subtypes in CAR^+ T cells after 5 days of pharmacological modulation. Data bars indicate the means of technical triplicates±1 S.D. (F) Rituximab CAR-T cell fold expansion after 6 days of inhibitor culture was tracked. T-cell fold expansion was normalized to the untreated control with each data point representing biological replicates collected from healthy donors. The bars FIG. 1F represent data from, EGFRt, vehicle, CAL-101, AZD5363, Rapamycin, MYCi975, and Betulin, respectively, from left to right. (G) A 24-hr lysis assay of CD20 CAR-T cells against Raji target cells at three effector-to-target (E:T) ratios. Data bars indicate the means of technical triplicates±1 S.D. Percent lysis was normalized to cell counts in target-only wells. […] In (B)-(F), results are representative two independent experiments using cells from of two heathy donors. Statistical significance in panels B, C, and D was determined by two-tailed Student's t test with Sidak correction for multiple comparisons. * p<0.05, ** p<0.01, *** p<0.001, n.s. not statistically significant. […]
(§1) Antibody staining for flow-cytometry analysis. EGFRt expression was measured with biotinylated cetuximab (Eli Lilly; biotinylated in-house), followed by PE-conjugated streptavidin (Jackson ImmunoResearch #016-110-084). CAR expression was quantified by surface epitope staining using anti-Fc (Alexa Fluor 488, Jackson ImmunoResearch #709-546-098). Antigen-independent activation-marker expression of CAR-T cells was evaluated by antibody staining for CD137 (PE/Cy7, clone 4B4-1, BioLegend #309818), and PD-1 (FITC, clone EH12.2H7, BioLegend #329904) on Days 18 (i.e., 18 days after Dynabead addition and 11 days after Dynabead removal) and after 5-6 days of inhibitor culture (FIG. 1, FIG. 3). T-cell subtype of CAR-T cells was evaluated by antibody staining for CD45RO (VioBlue®, clone REA611, Miltenyi #130-119-620) and CD62L (APC, clone DREG56, Invitrogen #17-0629-42) after 5-6 days of inhibitor culture (FIG. 1, FIG. 3). […]

rituximab CAR-T cells [2] = assay: T-cell subtype distribution (CD45RO/CD62L staining), rituximab CAR-T cells; format: cell-based, human; settings: 5 days of pharmacological modulation, vs vehicle
Description: FIG. 1A-G. Pharmacological inhibition of PI3K/AKT pathway modulates antigen-independent CAR-T cell activation. (A) Table of pharmacological inhibitors used during ex vivo expansion of rituximab CAR-T cells (left). Simplified schematic of the PI3K/AKT signaling axis where black arrows represent activation (right). (B) Activation marker expression by CAR^+ T cells in the absence of antigen stimulation after 5 days of pharmacological modulation. Data bars indicate the means of technical triplicates±1 S.D. The bars in FIG. 1B represent data from, untreated, vehicle, CAL-101, AZD5363, Rapamycin, MYCi975, and Betulin, respectively, from left to right. (C) TNF-α production CAR^+ T cells in the absence of antigen stimulation as quantified by intracellular flow cytometry. Data bars indicate the means of technical triplicates±1 S.D. The bars in FIG. 1B and FIG. 1C represent data from, untreated, vehicle, CAL-101, AZD5363, Rapamycin, MYCi975, and Betulin, respectively, from left to right. (D) Proliferation of CAR^+ T cells stained with CellTrace Violet (CTV) dye was assayed after a 4-day culture in the absence of target cells or exogenous cytokines. […] Statistical significance in panels B, C, and D was determined by two-tailed Student's t test with Sidak correction for multiple comparisons. * p<0.05, ** p<0.01, *** p<0.001, n.s. not statistically significant. […]
as §1, with “3).” for “3). T-cell subtype of CAR-T cells was evaluated by antibody staining for CD45RO (VioBlue®, clone REA611, Miltenyi #130-119-620) and CD62L (APC, clone DREG56, Invitrogen #17-0629-42) after 5-6 days of inhibitor culture (FIG. 1, FIG. 3).”

Raji target cells = assay: 24-hr lysis assay of inhibitor-treated rituximab CD20 CAR-T cells against Raji; format: cell-based; settings: three E:T ratios, vs vehicle-treated
Description: FIG. 1A-G. Pharmacological inhibition of PI3K/AKT pathway modulates antigen-independent CAR-T cell activation. (A) Table of pharmacological inhibitors used during ex vivo expansion of rituximab CAR-T cells (left). Simplified schematic of the PI3K/AKT signaling axis where black arrows represent activation (right). (B) Activation marker expression by CAR^+ T cells in the absence of antigen stimulation after 5 days of pharmacological modulation. Data bars indicate the means of technical triplicates±1 S.D. The bars in FIG. 1B represent data from, untreated, vehicle, CAL-101, AZD5363, Rapamycin, MYCi975, and Betulin, respectively, from left to right. (C) TNF-α production CAR^+ T cells in the absence of antigen stimulation as quantified by intracellular flow cytometry. Data bars indicate the means of technical triplicates±1 S.D. The bars in FIG. 1B and FIG. 1C represent data from, untreated, vehicle, CAL-101, AZD5363, Rapamycin, MYCi975, and Betulin, respectively, from left to right. (D) Proliferation of CAR^+ T cells stained with CellTrace Violet (CTV) dye was assayed after a 4-day culture in the absence of target cells or exogenous cytokines. Data shown in the histogram correspond to one of technical triplicates shown in the bar graph. The bars FIG. 1D represent data from, EGFRt, untreated, vehicle, CAL-101, AZD5363, Rapamycin, MYCi975, and Betulin, respectively, from left to right. (E) % distribution of T-cell subtypes in CAR^+ T cells after 5 days of pharmacological modulation. Data bars indicate the means of technical triplicates±1 S.D. (F) Rituximab CAR-T cell fold expansion after 6 days of inhibitor culture was tracked. […] Statistical significance in panels B, C, and D was determined by two-tailed Student's t test with Sidak correction for multiple comparisons. * p<0.05, ** p<0.01, *** p<0.001, n.s. not statistically significant.
Cytotoxicity assay with Raji cells. […] Remaining target cells were quantified by MACSQuant VYB flow cytometer 24-hr post co-incubation.

Row | Molecule | tonic signaling (rituximab CAR-T cells [1]) | measures of antigen-independent CAR-T cell activation (rituximab CAR-T cells [1]) | fraction of naïve and stem-cell memory T (Tn/scm) cells / T-cell differentiation (rituximab CAR-T cells [2]) | lysis of Raji tumor cells (Raji target cells)
1 | MYCi975 | increased | increased most measures | accelerated T-cell differentiation | clustered together
2 | C=C(C)[C@@H]1CC[C@]2(CO)CC[C@]3(C)[C@H](CC[C@@H]4[C@@]5(C)CC[C@H](O)C(C)(C)[C@@H]5CC[C@]43C)[C@@H]12 [betulin, Betulin] | increased | increased most measures | accelerated T-cell differentiation | clustered together
